This is an account of results in US11053233B2, “Solid form of (S)-[2-chloro-4-fluoro-5-(7-morpholin-4-yl-quinazolin-4-yl)phenyl]-(6-methoxy-pyridazin-3-yl)-methanol” (Merck Patent GmbH, priority 2017, dated 2021).

Converted amounts (≈) assume the structure as drawn.

The solubility is the dissolved amount per volume that the medium holds.

One data set has as its system HCT116. The following applies: 150 mg/kg oral plus IR 5 x 2 Gy. How it is done:
(§1) The therapeutic relevance of DNA-PK inhibition by the drug substance as such was investigated in vivo in combination with ionizing radiation (IR), a clinically established DSB-inducing treatment. The drug substance was tested for activity in six xenograft mouse models of human cancer. The models were chosen from different cancer indications (colon, lung, head and neck, pancreatic), and histological subtypes (adeno, squamous, large cell). Ionizing radiation was administered using a fractionated schedule of 2 Gy per day administered over five consecutive days (total radiation dose=10 Gy). […] 10 min prior to each fraction of radiation (ONC397-1-2AZ, ONC397-1-3AZ, ONC397-1-4AZ, ONC397-1-5AZ, ONC397-1-8AZ).
(§2) The radiotherapy enhancing effect was quantified across the tested models by the time to reaching 400% initial volume for the 150 mg/kg study arms. The resulting Kaplan-Meier plots were compared by the log-rank test.

The test system of another data set is A549. The following applies: 150 mg/kg oral plus IR 5 x 2 Gy. How it is done:
as §1, §2

Another data set has as its system NCI-H460. The following applies: 150 mg/kg oral plus IR 5 x 2 Gy. How it is done: as §1, §2
The subject of data set [1] is DNA-PK autophosphorylation in cancer cell lines.
In data set [2] the target is DNA-dependent protein kinase (DNA-PK) (Homo sapiens, UniProt P78527). The data set is described as follows: Inhibition of DNA-PK activity. Type of data set: biochemical.
The test system of data set [3] is xenograft mouse models of human cancer (colon, lung, head and neck, pancreatic). The data set is described as follows: Combination with ionizing radiation in six xenograft mouse models of human cancer. Type of data set: in vivo. The following applies: oral, 10 min prior to each fraction; IR 2 Gy per day over five days (10 Gy); all models. As to the method: as §1, §2
In general terms: A xenograft is tissue or cells of one species grown in another, often human tumour cells in immunodeficient mice.

Data set [4] is described as follows: Solubility measurements in biorelevant media (shake flask 24 h, HPLC). The format is physicochemical. How it is done:
Solubility measurements were carried out in accordance with the method described further below.
• Test media: • SGF (Simulated gastric fluid without pepsin) pH 1.2: • 2.0 g sodium chloride were placed in a 1 L volumetric flask and dissolved in around 500 mL water. 80 mL of 1 M hydrochloric acid solution were added and the volume made up to 1 L. • The resulting SGF solution contains: 34.2 mM sodium chloride • FaSSIF (Fasted State Simulated Intestinal Fluid) pH 6.5: • 0.224 g SIF powder (obtained from biorelevant.com) were dissolved in FaSSIF buffer in a 100 mL volumetric flask and made up to volume. The FaSSIF medium was allowed to equilibrate for 2 h at ambient room temperature and used within 48 h of preparation. FaSSIF buffer can be made up by dissolving 0.42 g NaOH pellets, 3.44 g of monobasic sodium phosphate anhydrous and 6.19 g sodium chloride in about 0.9 L of purified water, adjusting the pH to […] with 1 N NaOH or 1 N HCl and making up the volume to 1 L. • The resulting FaSSIF contains: 3 mM sodium taurocholate; 0.75 mM lecithin; 105.9 mM sodium chloride; 28.4 mM monobasic sodium phosphate and 8.7 mM sodium hydroxide. • FeSSIF (Fed State Simulated Intestinal Fluid) pH 5.0: • 1.12 g SIF powder (biorelevant.com) were dissolved in FeSSIF buffer in a 100 mL volumetric flask and made up to volume. It was used within 48 h of preparation. FeSSIF buffer can be made up by dissolving 4.04 g NaOH pellets, 8.65 g of glacial acetic acid and 11.87 g sodium chloride in about 0.9 L of purified water, adjusting the pH to […] with 1 N NaOH or 1 N HCl and making up the volume to 1 L. • The resulting FeSSIF contains: 15 mM sodium taurocholate; 3.75 mM lecithin; 203.2 mM sodium chloride; 101.0 mM sodium hydroxide and 144.1 mM acetic acid. • Solubility Measurements: • Excess amount of substance was weighed into Uniprep® Whatman vials, to which 1 mL of test medium were added. The suspension was shaken for 24 h at 450 rpm (rounds per minute) at 37° C. The pH was measured at 1 h, 6 h and 24 h and the vials were checked for undissolved compound. The pH of the medium was adjusted wherever necessary. After 24 h, the solutions were filtered through 0.2 μm PTFE membrane filter and the filtrates analysed using HPLC after suitable dilutions. • HPLC: • Apparatus: Agilent 1100 • Column: Chromolith® Performance RP-18e100-3 mm, Art. 1.52001 (h) • Wavelength: 282 nm • Injection volume: 5 μL • Column Oven: 37° C. • Auto sampler: 37° C. • Eluent A for HPLC: Formic Acid:Ultrapure water (1:999;v/v) • Eluent B for HPLC: Formic Acid+Acetonitrile (1:999;v/v) • HPLC-Gradient: […]

Data set [5] is described as follows: Long-term DS (drug substance) stability investigations. The format is physicochemical. The following applies: up to 40° C./75% relative humidity.

Regarding `COc1ccc([C@@H](O)c2cc(-c3ncnc4cc(N5CCOCC5)ccc34)c(F)cc2Cl)nn1` [drug substance, (S)-[2-chloro-4-fluoro-5-(7-morpholin-4-yl-quinazolin-4-yl)phenyl]-(6-methoxy-pyridazin-3-yl)-methanol], the figures for the “Enhancement ratio (time to reaching 400% initial volume)” value in the data set on HCT116, in the data set with A549 and with NCI-H460 were 1.5, 1.5 and 2.6, respectively. The “Inhibition of DNA-PK autophosphorylation” value in data set [1] is given as “potent inhibition”. Moreover, in data set [2], the “Inhibition of DNA-PK activity” value was “potent and selective inhibitor”. The “Enhancement of the radiation effect” value in data set [3] was “strong enhancement of the radiation effect”.

`COc1ccc([C@@H](O)c2cc(-c3ncnc4cc(N5CCOCC5)ccc34)c(F)cc2Cl)nn1` [anhydrous disordered crystalline form, (S)-[2-chloro-4-fluoro-5-(7-morpholin-4-yl-quinazolin-4-yl)phenyl]-(6-methoxy-pyridazin-3-yl)-methanol]: the “Solubility compared with the anhydrous ordered crystalline compound” value was “more than double the solubility of the crystalline form” in data set [4] (at pH 1.2) and “significantly better” in data set [4] (general statement). In addition, the solubility at 24 h in data set [4] (fasted state simulated intestinal fluid (FaSSIF), pH 6.5, thermodynamic from solid, FaSSIF, pH of medium 6.5, 37 °C) is 10 ± 1 µg/mL (≈ 20.8 µM); in data set [4] (fed state simulated intestinal fluid (FeSSIF), pH 5, thermodynamic from solid, FeSSIF, pH of medium 5.0, 37 °C), 56 ± 2 µg/mL (≈ 116 µM); in data set [4] (simulated gastric fluid without pepsin (SGF), pH 1.2, simulated gastric fluid, thermodynamic from solid, SGF, pH of medium 1.2, 37 °C), 2020 ± 67 µg/mL (≈ 4200 µM). Besides, the “Chemical and physical stability” value in data set [5] is “high chemical and physical stability”.
